# Measured values published in patent US9132177B2, “Composition of tumor-associated peptides and related anti-cancer vaccine for the treatment of gastric cancer and other cancers” (priority 2010, dated 2015).
# Test system: CD8+ T cells
# Assay: In vitro priming of CD8+ T cells with pMHC/anti-CD28 coated beads, multimer staining readout
# Assay type: cell-based, human
# Conditions: HLA-A*24 healthy donors, three stimulations, A*2402 multimer+ CD8+
# Excerpt: In order to perform in vitro stimulations by artificial antigen presenting cells (aAPC) loaded with peptide-MHC complex (pMHC) and anti-CD28 antibody, we first isolated CD8 T cells from fresh HLA-A*24 leukapheresis products of healthy donors obtained from the Blood Bank Tuebingen.
# CD8 T cells were either directly enriched from the leukapheresis product or PBMCs (peripheral blood mononuclear cells) were isolated first by using standard gradient separation medium (PAA, Cölbe, Germany). Isolated CD8 lymphocytes or PBMCs were incubated until use in T-cell medium (TCM) consisting of RPMI-Glutamax (Invitrogen, Karlsruhe, Germany) supplemented with 10% heat inactivated human AB serum (PAN-Biotech, Aidenbach, Germany), 100 U/ml Penicillin/100 μg/ml Streptomycin (Cambrex, Cologne, Germany), 1 mM sodium pyruvate (CC Pro, Oberdorla, Germany), 20 μg/ml Gentamycin (Cambrex). […] Isolation of CD8+ lymphocytes was performed by positive selection using CD8 MicroBeads (Miltenyi Biotec, Bergisch-Gladbach, Germany).
# 800.000 beads/200 μl were coated in 96-well plates in the presence of 600 ng biotin anti-CD28 plus 200 ng relevant biotin-pMHC (high density beads). Stimulations were initiated in 96-well plates by co-incubating 1×10^6 CD8+ T cells with 2×10^5 washed coated beads in 200 μl TCM supplemented with 5 ng/ml IL-12 (PromoCell) for 3-4 days at 37° C. Half of the medium was then exchanged by fresh TCM supplemented with 80 U/ml IL-2 and incubating was continued for 3-4 days at 37° C. This stimulation cycle was performed for a total of three times. […] For analysis, a BD LSRII SORP cytometer equipped with appropriate lasers and filters was used. Peptide specific cells were calculated as percentage of total CD8+ cells. Evaluation of multimeric analysis was done using the FlowJo software (Tree Star, Oregon, USA). In vitro priming of specific multimer+ CD8+ lymphocytes was detected by appropriate gating and by comparing to negative control stimulations.
Sequence,Positive donors/donors tested [%],Positive wells/wells tested [%]
SYIDVLPEF (listed as Homo sapiens) [MET-006],63%,22%
NYLPFIMEL (listed as Homo sapiens) [UCHL5-001],75%,14%
FYISPVNKL (listed as Homo sapiens) [AVL9-001],100%,50%
NYLLYVSNF (listed as Homo sapiens) [MST1R-001],50%,14%
VYIEKNDKL (listed as Homo sapiens) [ERBB3-001],83%,15%
YYNAAGFNKL (listed as Homo sapiens) [UQCRB-001],100%,38%
VWSDVTPLTF (listed as Homo sapiens) [MMP11-001],33%,11%
TYGNLLDYL (listed as Homo sapiens) [ABL1-001],50%,13%
RFLSGIINF (listed as Homo sapiens) [NUF2-002],50%,4%
SYIIDPLNL (listed as Homo sapiens) [PROM1-001],83%,26%
VYGIRLEHF (listed as Homo sapiens) [NUF2-001],100%,25%
HYKPTPLYF (listed as Homo sapiens) [SMC4-001],75%,9%
LYQILQGIVF (listed as Homo sapiens) [CDC2-001],88%,28%
SYNPLWLRI (listed as Homo sapiens) [ASPM-002],63%,31%
AYLVYTDRL (listed as Homo sapiens) [PPAP2C-001],100%,54%

# Test system: HLA-DR broad antigens (HLA-DR1 to DR7)
# Assay: ProImmune REVEAL MHC:peptide in vitro binding assay
# Parameters: species or system human
# Conditions: HLA-DR1, 3, 4 and 11; result in words
# Procedure: The ProImmune REVEAL™ technology employs in vitro HLA-DR assembly assays to determine the on-rates for the MHC:peptide complex as one major determinant of the binding constant of individual peptides. The assay was performed by ProImmune (Oxford, UK). At a fixed time point, the amount of intact MHC:peptide complexes is measured and compared with the amount for a pass/fail control (relative weak binder). A strong, promiscuous HLA-DR binder is included as positive control. Values indicate amount of binding for the individual peptides and HLA-DR molecules relative to the pass/fail control.
# In this assay, binding was compared to that of a pass/fail control binder, and to a positive control peptide for each HLA-DR antigen.
row,in vitro binding to HLA-DR,Sequence
1,promiscuous binding,TLGEFLKLDRERAKN (listed as Homo sapiens) [IMA-BIR-002]

# Test system: anti-survivin T-cell response
# Assay: Phase I/II vaccination study, T cell response (IFN-g ELISPOT, +/-ICS)
# Assay type: in vivo, human
# Conditions: among the 16 reacting patients
row,Sequence,patients with induction of an anti-survivin T-cell response upon vaccination
1,TLGEFLKLDRERAKN (listed as Homo sapiens) [IMA-BIR-002],12

# Same assay, conditions: of the 19 patients, prostate carcinoma, s.c. vaccination
row,Sequence,"patients who reacted to the peptide (IFN-g ELISPOT, +/-ICS)"
1,TLGEFLKLDRERAKN (listed as Homo sapiens) [IMA-BIR-002],16
